How the values were obtained:
[1] = tested on: mouse primary glia; test: exosome release from glial cells, nanoparticle tracking analysis; format: cell-based; conditions: glia activated by FBS, 0.03-100 μM, two hours after treatment
[2] = tested on: horizontal brain slices; test: voltage traces from brain slices on multielectrode array; conditions: pre and post 10 μM treatment
[3] = molecular target: P38a/MAPK14 (Homo sapiens, UniProt Q16539); test: p38 MAP kinase profiling, P38a; conditions: DPTIP tested at 0.001-100 μM
Chain of P38a/MAPK14 (Q16539 whole entry): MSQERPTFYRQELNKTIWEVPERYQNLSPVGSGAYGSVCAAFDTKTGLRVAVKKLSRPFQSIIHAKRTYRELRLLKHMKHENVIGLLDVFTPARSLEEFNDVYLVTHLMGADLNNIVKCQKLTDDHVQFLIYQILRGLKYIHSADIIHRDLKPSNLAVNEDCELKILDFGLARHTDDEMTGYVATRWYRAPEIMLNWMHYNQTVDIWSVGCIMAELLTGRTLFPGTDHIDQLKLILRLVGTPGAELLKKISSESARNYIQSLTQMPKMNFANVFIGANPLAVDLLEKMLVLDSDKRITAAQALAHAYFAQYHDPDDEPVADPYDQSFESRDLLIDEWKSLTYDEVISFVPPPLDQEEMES

[4] = molecular target: T1, P38d/MAPK13 (Homo sapiens, UniProt O15264); test: p38 MAP kinase profiling, P38d; format: biochemical; conditions: DPTIP tested at 0.001-100 μM
T1 sequence (O15264 1-365): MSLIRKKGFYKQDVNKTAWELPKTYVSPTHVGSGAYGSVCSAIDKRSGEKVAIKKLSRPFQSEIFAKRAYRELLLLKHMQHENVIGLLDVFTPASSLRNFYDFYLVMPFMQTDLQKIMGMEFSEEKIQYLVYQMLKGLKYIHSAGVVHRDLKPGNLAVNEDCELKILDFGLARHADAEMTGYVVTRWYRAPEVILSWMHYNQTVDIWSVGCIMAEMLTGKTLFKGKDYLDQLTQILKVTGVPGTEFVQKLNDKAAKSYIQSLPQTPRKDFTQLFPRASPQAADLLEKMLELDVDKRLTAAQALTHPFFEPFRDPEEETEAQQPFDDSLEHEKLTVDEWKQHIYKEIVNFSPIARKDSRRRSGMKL

[5] = phase II glucuronidation stability; format: in vitro ADME; conditions: at 1 hr
From the text: (§1) ; FIG. 6C) administration in mice were not optimal (F<5%, AUCbrain/plasma ratio <0.2).

[6] = molecular target: alkaline phosphatase; test: selectivity: alkaline phosphatase inhibition; format: biochemical
[7] = DPTIP brain penetration in AD mice (3xTg); format: in vivo; conditions: mouse, brain/plasma, ip; AD mice (3×Tg), 10 mg/kg i.p.
From the text: as §1

[8] = tested on: synaptic proteins (PSD-95, NR2A, GluR1); test: synaptic protein levels after nSMase2 inhibitor treatment; format: in vivo; conditions: 10 mg/kg daily; intraperitoneal
[9] = 759 bioassays; cited from earlier work
[10] = molecular target: T2, acid sphingomyelinase (Homo sapiens, UniProt P17405); test: selectivity: acid sphingomyelinase inhibition
T2 sequence (P17405 47-631): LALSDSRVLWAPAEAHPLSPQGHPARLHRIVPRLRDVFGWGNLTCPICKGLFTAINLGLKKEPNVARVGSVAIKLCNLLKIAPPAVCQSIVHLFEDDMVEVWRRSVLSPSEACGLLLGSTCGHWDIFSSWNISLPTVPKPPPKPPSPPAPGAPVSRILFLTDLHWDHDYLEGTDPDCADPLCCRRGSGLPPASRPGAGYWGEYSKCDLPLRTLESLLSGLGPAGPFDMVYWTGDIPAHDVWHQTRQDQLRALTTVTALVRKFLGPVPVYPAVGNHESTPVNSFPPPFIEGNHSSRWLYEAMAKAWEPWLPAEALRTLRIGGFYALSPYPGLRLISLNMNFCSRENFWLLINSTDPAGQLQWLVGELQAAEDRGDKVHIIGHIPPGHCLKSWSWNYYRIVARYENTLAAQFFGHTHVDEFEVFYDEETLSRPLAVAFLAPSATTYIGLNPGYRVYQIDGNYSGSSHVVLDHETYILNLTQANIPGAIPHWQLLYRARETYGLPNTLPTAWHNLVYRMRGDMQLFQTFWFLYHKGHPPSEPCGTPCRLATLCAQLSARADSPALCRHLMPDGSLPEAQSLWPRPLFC

[11] = DPTIP pharmacokinetics in mice; format: in vivo
Method: (§2) The in vitro and in vivo pharmacokinetic properties of DPTIP were evaluated.
as §1

[12] = Phase I metabolic stability, human liver microsomes; format: in vitro ADME; conditions: at 1 hr
Method: as §2, §1

[13] = molecular target: P38b/MAPK11 (Homo sapiens, UniProt Q15759); test: p38 MAP kinase profiling, P38b; conditions: DPTIP tested at 0.001-100 μM
Chain of P38b/MAPK11 (Q15759 whole entry): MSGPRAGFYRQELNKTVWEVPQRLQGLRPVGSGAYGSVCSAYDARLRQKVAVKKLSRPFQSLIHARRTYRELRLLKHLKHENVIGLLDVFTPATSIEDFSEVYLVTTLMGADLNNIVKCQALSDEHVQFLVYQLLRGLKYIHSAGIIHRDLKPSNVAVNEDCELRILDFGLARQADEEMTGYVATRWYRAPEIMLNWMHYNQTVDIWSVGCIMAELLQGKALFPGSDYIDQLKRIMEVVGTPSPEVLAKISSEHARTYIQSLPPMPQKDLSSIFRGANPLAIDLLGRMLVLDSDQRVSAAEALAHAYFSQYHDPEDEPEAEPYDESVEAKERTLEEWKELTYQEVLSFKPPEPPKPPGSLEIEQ

[14] = Phase I metabolic stability, mouse liver microsomes; format: in vitro ADME; conditions: at 1 hr
Method: as §2, §1

[15] = molecular target: T3, P38g (Homo sapiens, UniProt P53778); test: p38 MAP kinase profiling, P38g; conditions: DPTIP tested at 0.001-100 μM
T3 sequence (P53778 1-367): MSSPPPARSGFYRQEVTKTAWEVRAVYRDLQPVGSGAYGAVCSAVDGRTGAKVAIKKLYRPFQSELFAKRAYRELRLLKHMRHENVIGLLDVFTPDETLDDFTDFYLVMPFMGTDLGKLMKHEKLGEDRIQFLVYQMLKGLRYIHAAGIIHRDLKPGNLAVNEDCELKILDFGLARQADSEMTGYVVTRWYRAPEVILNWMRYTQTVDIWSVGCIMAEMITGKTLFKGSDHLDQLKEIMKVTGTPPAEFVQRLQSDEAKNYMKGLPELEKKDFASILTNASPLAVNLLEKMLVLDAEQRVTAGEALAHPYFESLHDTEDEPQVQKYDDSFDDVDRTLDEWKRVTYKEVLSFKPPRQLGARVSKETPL

[16] = tested on: human immunodeficiency virus (HIV); conditions: cited from earlier work

Row | SMILES | exosome release [1] | differences in voltage traces (neuronal function) [2] | IC50 (M) [3] | IC50 (M) [4] | % remaining (phase II glucuronidation) [5] [%] | IC50 [6] [µM] | Kp [7] | effect on PSD95 or NR2A [8] | share of assays with weak activity (μM) [9] [%] | IC50 [10] [µM] | levels of DPTIP post-administration ([11]; 2-he post-administration) | Kp ([11]; mouse, brain/plasma, 10 mg/kg PO, read-out: AUCbrain/plasma ratio) | clearance ([11]; mouse, plasma, oral, 10 mg/kg, read-out: clearance Clapp) [mL/min/kg] | half-life ([11]; mouse, plasma, oral, 10 mg/kg, read-out: plasma half-life t½ (converted)) [min] | bioavailability ([11]; mouse, plasma, 10 mg/kg PO, read-out: oral bioavailability F) [%] | % remaining (CYP-dependent oxidation) [12] [%] | IC50 (M) [13] | % remaining (CYP-dependent oxidation) [14] [%] | IC50 (M) [15] | dendritic cell-mediated infection of healthy CD4+ T lymphocytes [16]
1 | COc1cc(-c2nc(-c3cccs3)c(-c3ccccc3)[nH]2)cc(OC)c1O [DPTIP, 2,6-dimethoxy-4-(5-phenyl-4-(thiophen-2-yl)-1H-imidazol-2-yl) phenol] | inhibited exosome release in a dose-dependent manner | No significant differences | not quantifiable | not quantifiable | > 50 | > 100 | < 0.2 | no significant effect | < 2.5 | > 100 | undetectable | < 0.2 | 92 | ~30 | < 5 | 100 | not quantifiable | 100 | not quantifiable | 
2 | COc1cc(OC)cc(-c2nc(-c3cccs3)c(-c3ccccc3)[nH]2)c1 [des-hydroxyl analog, reference compound] | no effect |  |  |  |  |  |  |  |  |  |  |  |  |  |  |  |  |  |  | 
3 | CCCCCCCCCC(=O)N[C@H](CO)C(=O)NC1=CC2(CO2)C(=O)C=C1 (stereo partly drawn) [spiroepoxide] |  |  |  |  |  |  |  |  |  |  |  |  |  |  |  |  |  |  |  | reduced

— US20230218581A1, “COMPOSITIONS AND METHODS COMPRISING DENDRIMERS AND THERAPEUTIC AGENTS” (The Johns Hopkins University, priority 2020, published 2023)
